In US20060004029A1, “Nitrogen-containing aromatic derivatives” (priority 2003, published 2006):

Molecular target: T1, FGFR1 (Homo sapiens, UniProt P11362)
T1 construct: made in house; host or cells: Sf9 insect cells, baculovirus (pFastBacHis), by the same method as VEGFR2
Test: Inhibition against receptor tyrosine kinase activity (HTRF), FGFR1
Format: biochemical
Conditions: His6-FGFR1 cytoplasmic domain, biotin-poly(GT), HTRF; read-out: FGFR1 kinase IC50
Excerpt: This assay is used to determine inhibition of a test substance on tyrosine kinase activity. DNA coding for the cytoplasmic domain of VEGFR2 is obtained by total cDNA synthesis (Edwards M, International Biotechnology Lab 5(3), 19-25, 1987) or by cloning. Expression in an appropriate expression system can produce a polypeptide with tyrosine kinase activity. […] For VEGFR2 (GenBank Accession No. L04947), the 1.7 kb DNA fragment described by Terman et al. (Oncogene, 6(9), 1677-1683, 1991), coding for the cytoplasmic domain, beginning with lysine 791 and including the termination codon, was isolated from a human placental cDNA library (purchased from Clontech Laboratories, Inc.) and cloned in a Baculovirus expression vector (pFastBacHis, purchased from GIBCO BRL). The recombinant construct was transfected into insect cells (Spondoptea frugiperda9 (Sf9)) to prepare a recombinant Baculovirus. (Instructions for preparation and use of recombinant Baculovirus may be found in standard texts, such as “Bac-To-Bac Baculovirus Expression System” (GIBCO BRL).) The cytoplasmic fragment starting from lysine 398 (FGFR1, GenBank Accession No. X52833), the cytoplasmic fragment starting from lysine 558 (PDGFRβ, GenBank Accession No. M21616) or the cytoplasmic fragment starting from lysine 974 (HGFR, GenBank Accession No. J02958) may be cloned and expressed by the same method for use in assays for other tyrosine kinases. EGFR was purchased from Sigma Co. (Product No. E-2645).
For expression of the VEGFR2 tyrosine kinase, Sf9 cells were infected with the VEGFR2 recombinant virus and collected after 48 hours. The collected cells were rinsed with ice-cooled phosphate buffered saline (PBS) and then resuspended using 20 ml of ice-cooled Lysis Buffer (50 mM Tris-HCl (pH 8.5), 5 mM 2-mercaptoethanol, 100 mM KCl, 1 mM phenylmethylsulfonyl fluoride, 1% (v/v) NP-40) per 1.5×10^8 cells. The suspension was centrifuged at 12,000 rpm for 30 minutes at 4° C. and the supernatant was obtained. The supernatant was added to a Ni-NTA agarose column (3 ml, purchased from Qiagen) equilibrated with Buffer A {20 mM Tris-HCl (pH 8.5), 5 mM 2-mercaptoethanol, 500 mM KCl, 20 mM imidazole, 10% (v/v) glycerol}. The column was washed with 30 ml of Buffer A, and then with 6 ml of Buffer B {20 mM Tris-HCl (pH 8.5), 5 mM 2-mercaptoethanol, 1M KCl, 10% (v/v) glycerol}, and finally with 6 ml of Buffer A. After washing, it was eluted with 6 ml of Buffer C {20 mM Tris-HCl (pH 8.5), 5 mM 2-mercaptoethanol, 100 mM KCl, 100 mM imidazole, 10% (v/v) glycerol}. The eluate was placed on a dialysis membrane (purchased from Spectrum Laboratories) and dialyzed with a dialysis buffer {20 mM Tris-HCl (pH 7.5), 10% (v/v) glycerol, 1 mM dithiothreitol, 0.1 mM Na3VO4, 0.1 mM EGTA}. After dialysis, it was supplied for SDS-electrophoresis, and the recombinant protein (His6-VEGFR2, cytoplasmic domain of VEGFR2 fused with 6 histidine residues at the N-terminus) detected at a molecular weight of approximately 100 kDa with Coumassie Brilliant Blue staining was assayed using BSA (bovine serum albumin, purchased from Sigma Co.) as the standard substance, and stored at −80° C. until use. Using the same method for the cytoplasmic domains of FGFR1, PDGFRβ and HGFR yielded respective recombinant proteins fused with 6 histidine residues at the N-terminal (His6-FGFR1, His6-PDGFRβ or His6-HGFR).
The tyrosine kinase reaction was conducted as follows. In the case of VEGFR2, for example, 10 μl of a kinase reaction solution {200 mM Hepes (pH 7.4), 80 mM MgCl2, 16 mM MnCl2, 2 mM Na3VO4}, 250 ng of biotin-bound poly(Glu4:Tyr1) (biotin-poly(GT), purchased from CIS Diagnostics Co.) (6 μl of a 15-fold dilution with distilled water), 15 ng of His6-VEGFR2 (10 μl of a 240-fold dilution with 0.4% BSA solution) and the test substance dissolved in dimethyl sulfoxide (4 μl of a 100-fold dilution with 0.1% BSA solution) were added into each well of a 96-well round-bottom plate (NUNC Co., Product No. 163320), to a total of 30 μl. […]

T1 sequence (P11362 398-822 limits assumed): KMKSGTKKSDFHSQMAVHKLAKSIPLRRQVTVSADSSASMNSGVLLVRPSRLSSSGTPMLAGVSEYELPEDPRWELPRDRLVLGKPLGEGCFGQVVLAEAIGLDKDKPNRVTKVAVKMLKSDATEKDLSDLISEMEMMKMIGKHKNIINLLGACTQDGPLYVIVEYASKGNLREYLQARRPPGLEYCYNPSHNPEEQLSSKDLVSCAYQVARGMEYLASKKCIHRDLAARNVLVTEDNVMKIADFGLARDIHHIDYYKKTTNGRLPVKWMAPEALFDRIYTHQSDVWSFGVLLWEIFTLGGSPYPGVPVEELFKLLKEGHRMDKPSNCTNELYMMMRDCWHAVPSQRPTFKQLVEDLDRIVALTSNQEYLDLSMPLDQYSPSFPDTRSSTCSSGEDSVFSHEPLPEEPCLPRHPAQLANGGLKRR

| SMILES | IC50 |
| --- | --- |
| CNC(=O)n1ccc2cc(Oc3ccnc(NC(=O)N4CCC(O)CC4)c3)ccc21 [Example 39, N1-Methyl-5-(2-((4-hydroxypiperidino)carbonyl)amino-4-pyridyl)oxy-1H-1-indolecarboxamide] | 6.3 nM |
| CNC(=O)n1ccc2cc(Oc3ccnc(NC(=O)N4CCC(C)(O)CC4)c3)ccc21 [Example 41, 5-(2-(((4-Hydroxy-4-methylpiperidin-1-yl)carbonyl)amino)pyridin-4-yloxy)-1H-1-indole-1-carboxylic acid methylamide] | 3.2 nM |
| CNC(=O)n1ccc2cc(Oc3ccnc(NC(=O)N4CCC(N5CCCC5)CC4)c3)ccc21 [Example 46, N1-Methyl-5-(2-(((4-(pyrrolidin-1-yl)piperidin-1-yl)carbonyl)amino)pyridin-4-yloxy)-1H-1-indolecarboxamide] | 12 nM |
| CNC(=O)n1ccc2cc(Oc3ccnc(NC(=O)N4CCC(N5CCCCC5)CC4)c3)ccc21 [Example 47, N1-Methyl-5-(2-(((4-(piperidin-1-yl)piperidin-1-yl)carbonyl)amino)pyridin-4-yloxy)-1H-1-indolecarboxamide] | 21 nM |
| CNC(=O)n1ccc2cc(Oc3ccnc(NC(=O)N4CCOCC4)c3)ccc21 [Example 53, N4-(4-(1-(Methylamino)carbonyl-1H-5-indolyl)oxy-2-pyridyl)-4-morpholinecarboxamide] | 2.1 nM |
